Laboratory results as given in US20230085307A1, “PYRIDAZINONE COMPOUND AND HERBICIDE” (NISSAN CHEMICAL CORPORATION, priority 2019, published 2023).

Assays:
green foxtail [1] = experiment: Test Example 5: herbicidal effect by foliage application, plastic box (Table 20, symbol G); format: in vivo, green foxtail (Setaria viridis); details: evaluated three weeks after application
In short: (§1)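 Plants sown in sterilized diluvial soil and grown 14 days in a greenhouse at 25° C to 30° C, then sprayed on the foliage with the compound's emulsion diluted in water to a predetermined herbicide amount. Injury to weeds and crops scored three weeks after application on a visual rating scale.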

redroot pigweed [2] = experiment: Test Example 4: herbicidal effect by soil treatment (Table 19, symbol N); format: in vivo, redroot pigweed (Amaranthus retroflexus)
In short: (§2)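 Three weeks of greenhouse growth at 25° C. to 30° C. followed a uniform surface spray of water-diluted emulsion at a predetermined herbicide amount. Seeds had been sown beforehand under about 1.5 cm of sterilized diluvial soil. Grading followed criteria set out in an earlier test.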

barnyard grass [3] = experiment: Test Example 5: herbicidal effect by foliage application, plastic box (Table 20, symbol H); format: in vivo, barnyard grass (Echinochloa crus-galli); details: evaluated three weeks after application
In short: as §1

southern crabgrass [4] = experiment: Test Example 5: herbicidal effect by foliage application, plastic box (Table 20, symbol F); format: in vivo, southern crabgrass (Digitaria ciliaris); details: evaluated three weeks after application
In short: as §1

green foxtail [5] = experiment: Test Example 4: herbicidal effect by soil treatment (Table 19, symbol G); format: in vivo, green foxtail (Setaria viridis)
In short: as §2

wild oat [6] = experiment: Test Example 4: herbicidal effect by soil treatment (Table 19, symbol I); format: in vivo, wild oat (Avena fatua)
In short: as §2

lambsquarters [7] = experiment: Test Example 5: herbicidal effect by foliage application, plastic box (Table 20, symbol O); format: in vivo, lambsquarters (Chenopodium album); details: evaluated three weeks after application
In short: as §1

barnyard grass [8] = experiment: Test Example 3: herbicidal effect by foliage application, Wagner pot (Table 18, symbol H); format: in vivo, barnyard grass (Echinochloa crus-galli); details: 320 g/ha
In short: (§3)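 Plants were sown in alluvial soil held under 0.1–0.5 cm standing water and grown 14 days in a greenhouse at 25–30 °C. An emulsifiable formulation, water-diluted to the set dose, was then sprayed onto the foliage, and effects were scored three weeks later using previously defined criteria.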

windgrass [9] = experiment: Test Example 4: herbicidal effect by soil treatment (Table 19, symbol L); format: in vivo, windgrass (Apera spica-venti)
In short: as §2

windgrass [10] = experiment: Test Example 5: herbicidal effect by foliage application, plastic box (Table 20, symbol L); format: in vivo, windgrass (Apera spica-venti); details: evaluated three weeks after application
In short: as §1

blackgrass [11] = experiment: Test Example 4: herbicidal effect by soil treatment (Table 19, symbol J); format: in vivo, blackgrass (Alopecurus myosuroides)
In short: as §2

redroot pigweed [12] = experiment: Test Example 5: herbicidal effect by foliage application, plastic box (Table 20, symbol N); format: in vivo, redroot pigweed (Amaranthus retroflexus); details: evaluated three weeks after application
In short: as §1

barnyard grass [13] = experiment: Test Example 4: herbicidal effect by soil treatment (Table 19, symbol H); format: in vivo, barnyard grass (Echinochloa crus-galli)
In short: as §2

persian speedwell [14] = experiment: Test Example 5: herbicidal effect by foliage application, plastic box (Table 20, symbol R); format: in vivo, Persian speedwell (Veronica persica); details: evaluated three weeks after application
In short: as §1

velvetleaf [15] = experiment: Test Example 4: herbicidal effect by soil treatment (Table 19, symbol M); format: in vivo, velvetleaf (Abutilon theophrasti)
In short: as §2

chickweed [16] = experiment: Test Example 4: herbicidal effect by soil treatment (Table 19, symbol P); format: in vivo, common chickweed (Stellaria media)
In short: as §2

wild oat [17] = experiment: Test Example 5: herbicidal effect by foliage application, plastic box (Table 20, symbol I); format: in vivo, wild oat (Avena fatua); details: evaluated three weeks after application
In short: as §1

blackgrass [18] = experiment: Test Example 5: herbicidal effect by foliage application, plastic box (Table 20, symbol J); format: in vivo, blackgrass (Alopecurus myosuroides); details: evaluated three weeks after application
In short: as §1

rice flat sedge = experiment: Test Example 3: herbicidal effect by foliage application, Wagner pot (Table 18, symbol E); format: in vivo, rice flat sedge (Cyperus iria); details: 320 g/ha
In short: as §3

Chinese sprangletop = experiment: Test Example 3: herbicidal effect by foliage application, Wagner pot (Table 18, symbol D); format: in vivo, chinese sprangletop (Leptochloa chinensis); details: 320 g/ha
In short: as §3

velvetleaf [19] = experiment: Test Example 5: herbicidal effect by foliage application, plastic box (Table 20, symbol M); format: in vivo, velvetleaf (Abutilon theophrasti); details: evaluated three weeks after application
In short: as §1

lambsquarters [20] = experiment: Test Example 4: herbicidal effect by soil treatment (Table 19, symbol O); format: in vivo, lambsquarters (Chenopodium album)
In short: as §2

Italian ryegrass [21] = experiment: Test Example 4: herbicidal effect by soil treatment (Table 19, symbol K); format: in vivo, Italian ryegrass (Lolium multiflorum)
In short: as §2

persian speedwell [22] = experiment: Test Example 4: herbicidal effect by soil treatment (Table 19, symbol R); format: in vivo, Persian speedwell (Veronica persica)
In short: as §2

chickweed [23] = experiment: Test Example 5: herbicidal effect by foliage application, plastic box (Table 20, symbol P); format: in vivo, common chickweed (Stellaria media); details: evaluated three weeks after application
In short: as §1

Italian ryegrass [24] = experiment: Test Example 5: herbicidal effect by foliage application, plastic box (Table 20, symbol K); format: in vivo, Italian ryegrass (Lolium multiflorum); details: evaluated three weeks after application
In short: as §1

southern crabgrass [25] = experiment: Test Example 4: herbicidal effect by soil treatment (Table 19, symbol F); format: in vivo, southern crabgrass (Digitaria ciliaris)
In short: as §2

[26] = amount of applied herbicide 320 g/ha, foliage application after 14-day growth
[27] = amount of applied herbicide 320 g/ha

Cc1nn(C)c(=O)c(-c2c(-c3ccc(C(F)(F)F)cc3)sc3cc(F)c(F)cc23)c1O [5-007]
Herbicidal effect by foliage application, G: green foxtail (green foxtail [1]; [26]): 4 (Herbicidal rate of 70% or more and less than 90%)
N: redroot pigweed, herbicidal effect grade (redroot pigweed [2]; [27]): 3 (Herbicidal rate of 40% or more and less than 70%)
Herbicidal effect by foliage application, H: barnyard grass (barnyard grass [3]; [26]): 3 (Herbicidal rate of 40% or more and less than 70%)
Herbicidal effect by foliage application, F: southern crabgrass (southern crabgrass [4]; [26]): 5 (Herbicidal rate of 90% or more (almost completely withered))
G: green foxtail, herbicidal effect grade (green foxtail [5]; [27]): 3 (Herbicidal rate of 40% or more and less than 70%)
I: wild oat, herbicidal effect grade (wild oat [6]; [27]): 0 (Herbicidal rate of 5% or less (almost no effect))
Herbicidal effect by foliage application, O: lambsquarters (lambsquarters [7]; [26]): 5 (Herbicidal rate of 90% or more (almost completely withered))
herbicidal effect on barnyard grass (H) (barnyard grass [8]): 4 (Herbicidal rate of 70% or more and less than 90%)
L: windgrass, herbicidal effect grade (windgrass [9]; [27]): 0 (Herbicidal rate of 5% or less (almost no effect))
Herbicidal effect by foliage application, L: windgrass (windgrass [10]; [26]): 4 (Herbicidal rate of 70% or more and less than 90%)
J: blackgrass, herbicidal effect grade (blackgrass [11]; [27]): 0 (Herbicidal rate of 5% or less (almost no effect))
Herbicidal effect by foliage application, N: redroot pigweed (redroot pigweed [12]; [26]): 5 (Herbicidal rate of 90% or more (almost completely withered))
H: barnyard grass, herbicidal effect grade (barnyard grass [13]; [27]): 0 (Herbicidal rate of 5% or less (almost no effect))
Herbicidal effect by foliage application, R: persian speedwell (persian speedwell [14]; [26]): 5 (Herbicidal rate of 90% or more (almost completely withered))
M: velvetleaf, herbicidal effect grade (velvetleaf [15]; [27]): 0 (Herbicidal rate of 5% or less (almost no effect))
P: chickweed, herbicidal effect grade (chickweed [16]; [27]): 3 (Herbicidal rate of 40% or more and less than 70%)
Herbicidal effect by foliage application, I: wild oat (wild oat [17]; [26]): 2 (Herbicidal rate of 20% or more and less than 40%)
Herbicidal effect by foliage application, J: blackgrass (blackgrass [18]; [26]): 0 (Herbicidal rate of 5% or less (almost no effect))
herbicidal effect on rice flat sedge (E) (rice flat sedge): 2 (Herbicidal rate of 20% or more and less than 40%)
herbicidal effect on Chinese sprangletop (D) (Chinese sprangletop): 1 (Herbicidal rate of 5% or more and less than 20%)
Herbicidal effect by foliage application, M: velvetleaf (velvetleaf [19]; [26]): 3 (Herbicidal rate of 40% or more and less than 70%)
O: lambsquarters, herbicidal effect grade (lambsquarters [20]; [27]): 1 (Herbicidal rate of 5% or more and less than 20%)
K: Italian ryegrass, herbicidal effect grade (Italian ryegrass [21]; [27]): 0 (Herbicidal rate of 5% or less (almost no effect))
R: persian speedwell, herbicidal effect grade (persian speedwell [22]; [27]): 3 (Herbicidal rate of 40% or more and less than 70%)
Herbicidal effect by foliage application, P: chickweed (chickweed [23]; [26]): 5 (Herbicidal rate of 90% or more (almost completely withered))
Herbicidal effect by foliage application, K: Italian ryegrass (Italian ryegrass [24]; [26]): 0 (Herbicidal rate of 5% or less (almost no effect))
F: southern crabgrass, herbicidal effect grade (southern crabgrass [25]; [27]): 0 (Herbicidal rate of 5% or less (almost no effect))

COc1ccc(-c2sc3ccc(F)cc3c2-c2c(O)c(C)nn(C)c2=O)cc1F [2-086]
herbicidal effect on G: green foxtail (green foxtail [1]; foliage application, 320 g/ha): 3 (Herbicidal rate of 40% or more and less than 70%)
herbicidal effect rating, N: redroot pigweed (redroot pigweed [2]; 320 g/ha): 4 (Herbicidal rate of 70% or more and less than 90%)
herbicidal effect on H: barnyard grass (barnyard grass [3]; foliage application, 320 g/ha): 3 (Herbicidal rate of 40% or more and less than 70%)
herbicidal effect on F: southern crabgrass (southern crabgrass [4]; foliage application, 320 g/ha): 0 (Herbicidal rate of 5% or less (almost no effect))
herbicidal effect rating, G: green foxtail (green foxtail [5]; 320 g/ha): 3 (Herbicidal rate of 40% or more and less than 70%)
herbicidal effect rating, I: wild oat (wild oat [6]; 320 g/ha): 0 (Herbicidal rate of 5% or less (almost no effect))
herbicidal effect on O: lambsquarters (lambsquarters [7]; foliage application, 320 g/ha): 4 (Herbicidal rate of 70% or more and less than 90%)
herbicidal effect on H (barnyard grass), rating 0-5 (barnyard grass [8]): 3 (Herbicidal rate of 40% or more and less than 70%)
herbicidal effect rating, L: windgrass (windgrass [9]; 320 g/ha): 0 (Herbicidal rate of 5% or less (almost no effect))
herbicidal effect on L: windgrass (windgrass [10]; foliage application, 320 g/ha): 0 (Herbicidal rate of 5% or less (almost no effect))
herbicidal effect rating, J: blackgrass (blackgrass [11]; 320 g/ha): 0 (Herbicidal rate of 5% or less (almost no effect))
herbicidal effect on N: redroot pigweed (redroot pigweed [12]; foliage application, 320 g/ha): 4 (Herbicidal rate of 70% or more and less than 90%)
herbicidal effect rating, H: barnyard grass (barnyard grass [13]; 320 g/ha): 3 (Herbicidal rate of 40% or more and less than 70%)
herbicidal effect on R: persian speedwell (persian speedwell [14]; foliage application, 320 g/ha): 5 (Herbicidal rate of 90% or more (almost completely withered))
herbicidal effect rating, M: velvetleaf (velvetleaf [15]; 320 g/ha): 4 (Herbicidal rate of 70% or more and less than 90%)
herbicidal effect rating, P: chickweed (chickweed [16]; 320 g/ha): 0 (Herbicidal rate of 5% or less (almost no effect))
herbicidal effect on I: wild oat (wild oat [17]; foliage application, 320 g/ha): 0 (Herbicidal rate of 5% or less (almost no effect))
herbicidal effect on J: blackgrass (blackgrass [18]; foliage application, 320 g/ha): 0 (Herbicidal rate of 5% or less (almost no effect))
herbicidal effect on E (rice flat sedge), rating 0-5 (rice flat sedge): 5 (Herbicidal rate of 90% or more (almost completely withered))
herbicidal effect on D (Chinese sprangletop), rating 0-5 (Chinese sprangletop): 3 (Herbicidal rate of 40% or more and less than 70%)
herbicidal effect on M: velvetleaf (velvetleaf [19]; foliage application, 320 g/ha): 5 (Herbicidal rate of 90% or more (almost completely withered))
herbicidal effect rating, O: lambsquarters (lambsquarters [20]; 320 g/ha): 5 (Herbicidal rate of 90% or more (almost completely withered))
herbicidal effect rating, K: Italian ryegrass (Italian ryegrass [21]; 320 g/ha): 0 (Herbicidal rate of 5% or less (almost no effect))
herbicidal effect rating, R: persian speedwell (persian speedwell [22]; 320 g/ha): 5 (Herbicidal rate of 90% or more (almost completely withered))
herbicidal effect on P: chickweed (chickweed [23]; foliage application, 320 g/ha): 5 (Herbicidal rate of 90% or more (almost completely withered))
herbicidal effect on K: Italian ryegrass (Italian ryegrass [24]; foliage application, 320 g/ha): 0 (Herbicidal rate of 5% or less (almost no effect))
herbicidal effect rating, F: southern crabgrass (southern crabgrass [25]; 320 g/ha): 1 (Herbicidal rate of 5% or more and less than 20%)
